The source made the active and inactive calls. How the calls were made is not given here.
System: rodent lifetime carcinogenesis bioassay, tumor incidence TD50
Test: chronic cancer bioassays in animals – CPDB, compiled studies (AID 1745844)

Compound: CCCCN(CCCC)N=O
- TD50 (mouse, strain ICR/Jcl, males, in feed, site: esophagus, lesion: papilloma, dosed 52 weeks, study length 65 weeks): 11.9 mg/kg/day
- TD50 (mouse, strain ICR/Jcl, males, in feed, site: forestomach, lesion: several types, types named in the paper, dosed 52 weeks, study length 65 weeks): 0.686 mg/kg/day
- TD50 (mouse, strain ICR/Jcl, males, in feed, site: forestomach, lesion: squamous-cell carcinoma, dosed 52 weeks, study length 65 weeks): 1.09 mg/kg/day
- TD50 (mouse, strain ICR/Jcl, males, in feed, site: forestomach, lesion: squamous-cell papilloma, dosed 52 weeks, study length 65 weeks): 7.69 mg/kg/day
- TD50 (mouse, strain ICR/Jcl, males, in feed, site: liver, lesion: adenoma, dosed 52 weeks, study length 65 weeks): 4.34 mg/kg/day
- TD50 (mouse, strain ICR/Jcl, males, in feed, site: liver, lesion: several types, types named in the paper, dosed 52 weeks, study length 65 weeks): 2.65 mg/kg/day
- TD50 (mouse, strain ICR/Jcl, males, in feed, site: lung, lesion: adenoma, dosed 52 weeks, study length 65 weeks): 8 mg/kg/day
- TD50 (rat, strain Fischer 344, males, by gavage, site: forestomach, lesion: carcinoma, dosed 30 weeks, study length 108 weeks): 0.914 mg/kg/day
- TD50 (rat, strain Fischer 344, males, by gavage, site: liver, lesion: hepatocellular carcinoma, dosed 30 weeks, study length 108 weeks): 0.691 mg/kg/day
- TD50 (rat, strain Fischer 344, males, by gavage, site: lung, lesion: carcinoma, dosed 30 weeks, study length 108 weeks): 1.16 mg/kg/day
- TD50 (rat, strain Fischer 344, males, by gavage, site: urinary bladder, lesion: transitional-cell carcinoma, dosed 30 weeks, study length 108 weeks): 1.47 mg/kg/day

Compound: ClC1C2(Cl)C3C4C5OC5C5C4C1(Cl)C(Cl)(C53)C2(Cl)Cl (stereo not drawn)
- TD50 (mouse, strain B6C3F1, females, in feed, site: any site (literature study), lesion: several types, types named in the paper, dosed 80 weeks, study length 92 weeks): 0.743 mg/kg/day (inactive)
- TD50 (mouse, strain B6C3F1, females, in feed, site: liver, lesion: hepatocellular adenoma + hepatocellular carcinoma + neoplastic nodule, dosed 80 weeks, study length 92 weeks): 2.53 mg/kg/day
- TD50 (mouse, strain B6C3F1, females, in feed, site: lung, lesion: alveolar/bronchiolar adenoma + alveolar/bronchiolar carcinoma, dosed 80 weeks, study length 92 weeks): 6.78 mg/kg/day
- TD50 (mouse, strain B6C3F1, males, in feed, site: any site (literature study), lesion: several types, types named in the paper, dosed 80 weeks, study length 93 weeks): 0.494 mg/kg/day (inactive)
- TD50 (mouse, strain B6C3F1, males, in feed, site: liver, lesion: hepatocellular adenoma + hepatocellular carcinoma + neoplastic nodule, dosed 80 weeks, study length 93 weeks): 1.96 mg/kg/day
- TD50 (mouse, strain B6C3F1, males, in feed, site: lung, lesion: alveolar/bronchiolar adenoma + alveolar/bronchiolar carcinoma, dosed 80 weeks, study length 93 weeks): 0.465 mg/kg/day
- TD50 (rat, strain Osborne-Mendel, females, in feed, site: any site (literature study), lesion: several types, types named in the paper, dosed 69 weeks, study length 111 weeks): 0.327 mg/kg/day
- TD50 (rat, strain Osborne-Mendel, females, in feed, site: mammary gland, lesion: adenoma + fibroadenoma, dosed 69 weeks, study length 111 weeks): 0.612 mg/kg/day (inactive)
- TD50 (rat, strain Osborne-Mendel, males, in feed, site: all sites, lesion: hemangioma, dosed 80 weeks, study length 109 weeks): 2.89 mg/kg/day (inactive)
- carcinogen call (rat, strain Osborne-Mendel, males, in feed, site: any site (literature study), lesion: several types, types named in the paper, dosed 80 weeks, study length 111 weeks): negative (inactive)
- TD50 (rat, strain Osborne-Mendel, males, in feed, site: liver, lesion: hepatocellular adenoma + hepatocellular carcinoma + neoplastic nodule, dosed 80 weeks, study length 111 weeks): 7.72 mg/kg/day

Compound: CCN(Cc1cccc(S(=O)(=O)O)c1)c1ccc(C(=C2C=CC(=[N+](CC)Cc3cccc(S(=O)(=O)O)c3)C=C2)c2ccc(O)cc2S(=O)(=O)[O-])cc1
- carcinogen call (mouse, strain C3HeB/FeJ, females, in feed, site: any site (literature study), lesion: malignant tumor, dosed 104 weeks, study length 104 weeks): negative (inactive)
- carcinogen call (mouse, strain C3HeB/FeJ, females, in feed, site: any site (literature study), lesion: several types, types named in the paper, dosed 104 weeks, study length 104 weeks): negative (inactive)
- carcinogen call (mouse, strain C3HeB/FeJ, females, in feed, site: liver, lesion: hepatocellular adenoma, dosed 104 weeks, study length 104 weeks): negative (inactive)
- TD50 (mouse, strain C3HeB/FeJ, females, in feed, site: lung, lesion: adenoma, dosed 104 weeks, study length 104 weeks): 133000 mg/kg/day (inactive)
- carcinogen call (mouse, strain C3HeB/FeJ, males, in feed, site: any site (literature study), lesion: malignant tumor, dosed 104 weeks, study length 104 weeks): negative (inactive)
- TD50 (mouse, strain C3HeB/FeJ, males, in feed, site: any site (literature study), lesion: several types, types named in the paper, dosed 104 weeks, study length 104 weeks): 18100 mg/kg/day (inactive)
- carcinogen call (mouse, strain C3HeB/FeJ, males, in feed, site: lung, lesion: adenoma, dosed 104 weeks, study length 104 weeks): negative (inactive)
- TD50 (rat, strain Osborne-Mendel, females, in feed, site: any site (literature study), lesion: malignant tumor, dosed 104 weeks, study length 104 weeks): 46700 mg/kg/day (inactive)
- TD50 (rat, strain Osborne-Mendel, females, in feed, site: any site (literature study), lesion: several types, types named in the paper, dosed 104 weeks, study length 104 weeks): 18500 mg/kg/day (inactive)
- carcinogen call (rat, strain Osborne-Mendel, females, in feed, site: liver, lesion: one or several types, types not named, dosed 104 weeks, study length 104 weeks): negative (inactive)
- carcinogen call (rat, strain Osborne-Mendel, females, in feed, site: mammary gland, lesion: fibroadenoma, dosed 104 weeks, study length 104 weeks): negative (inactive)
- carcinogen call (rat, strain Osborne-Mendel, males, in feed, site: any site (literature study), lesion: malignant tumor, dosed 104 weeks, study length 104 weeks): negative (inactive)
- carcinogen call (rat, strain Osborne-Mendel, males, in feed, site: any site (literature study), lesion: several types, types named in the paper, dosed 104 weeks, study length 104 weeks): negative (inactive)
- carcinogen call (rat, strain Osborne-Mendel, males, in feed, site: liver, lesion: hepatocellular adenoma, dosed 104 weeks, study length 104 weeks): negative (inactive)

Compound: CC(C)NCC(O)c1ccc(NS(C)(=O)=O)cc1 (stereo not drawn)
- TD50 (mouse, strain Charles River CD1, females, in feed, site: any site (literature study), lesion: benign tumor, dosed 78 weeks, study length 92 weeks): 1740 mg/kg/day (inactive)
- carcinogen call (mouse, strain Charles River CD1, females, in feed, site: any site (literature study), lesion: malignant tumor, dosed 78 weeks, study length 92 weeks): negative (inactive)
- TD50 (mouse, strain Charles River CD1, females, in feed, site: any site (literature study), lesion: several types, types named in the paper, dosed 78 weeks, study length 92 weeks): 1910 mg/kg/day (inactive)
- carcinogen call (mouse, strain Charles River CD1, females, in feed, site: liver, lesion: one or several types, types not named, dosed 78 weeks, study length 92 weeks): negative (inactive)
- TD50 (mouse, strain Charles River CD1, females, in feed, site: lung, lesion: adenoma, dosed 78 weeks, study length 92 weeks): 3500 mg/kg/day (inactive)
- TD50 (mouse, strain Charles River CD1, females, in feed, site: lung, lesion: carcinoma, dosed 78 weeks, study length 92 weeks): 24500 mg/kg/day (inactive)
- carcinogen call (mouse, strain Charles River CD1, males, in feed, site: any site (literature study), lesion: benign tumor, dosed 78 weeks, study length 92 weeks): negative (inactive)
- carcinogen call (mouse, strain Charles River CD1, males, in feed, site: any site (literature study), lesion: malignant tumor, dosed 78 weeks, study length 92 weeks): negative (inactive)
- carcinogen call (mouse, strain Charles River CD1, males, in feed, site: any site (literature study), lesion: several types, types named in the paper, dosed 78 weeks, study length 92 weeks): negative (inactive)
- carcinogen call (mouse, strain Charles River CD1, males, in feed, site: liver, lesion: adenoma, dosed 78 weeks, study length 92 weeks): negative (inactive)
- carcinogen call (mouse, strain Charles River CD1, males, in feed, site: liver, lesion: carcinoma, dosed 78 weeks, study length 92 weeks): negative (inactive)
- TD50 (mouse, strain Charles River CD1, males, in feed, site: lung, lesion: adenoma, dosed 78 weeks, study length 92 weeks): 31400 mg/kg/day (inactive)
- carcinogen call (mouse, strain Charles River CD1, males, in feed, site: lung, lesion: carcinoma, dosed 78 weeks, study length 92 weeks): negative (inactive)
- carcinogen call (rat, strain Long-Evans, females, in feed, site: any site (literature study), lesion: benign tumor, dosed 78 weeks, study length 104 weeks): negative (inactive)
- TD50 (rat, strain Long-Evans, females, in feed, site: any site (literature study), lesion: malignant tumor, dosed 78 weeks, study length 104 weeks): 1600 mg/kg/day (inactive)
- TD50 (rat, strain Long-Evans, females, in feed, site: any site (literature study), lesion: several types, types named in the paper, dosed 78 weeks, study length 104 weeks): 477 mg/kg/day (inactive)
- TD50 (rat, strain Long-Evans, females, in feed, site: liver, lesion: cholangioma, dosed 78 weeks, study length 104 weeks): 12600 mg/kg/day (inactive)
- carcinogen call (rat, strain Long-Evans, males, in feed, site: any site (literature study), lesion: benign tumor, dosed 78 weeks, study length 104 weeks): negative (inactive)
- TD50 (rat, strain Long-Evans, males, in feed, site: any site (literature study), lesion: malignant tumor, dosed 78 weeks, study length 104 weeks): 2270 mg/kg/day (inactive)
- TD50 (rat, strain Long-Evans, males, in feed, site: any site (literature study), lesion: several types, types named in the paper, dosed 78 weeks, study length 104 weeks): 796 mg/kg/day (inactive)
- TD50 (rat, strain Long-Evans, males, in feed, site: liver, lesion: hepatocellular adenoma, dosed 78 weeks, study length 104 weeks): 309000 mg/kg/day (inactive)
- TD50 (rat, strain Long-Evans, males, in feed, site: liver, lesion: hepatocellular carcinoma, dosed 78 weeks, study length 104 weeks): 12400 mg/kg/day (inactive)
